Assay: Human HepG2 cell viability assay in 384 well format
Type: toxicity, cell-based
Design: dose 125 nL, time 70.5 hour; concentration not given beside the values
Settings: HepG2 cells, read-out: Inhibition

SMILES	cytotoxicity at 70.5 h [%]
COc1ccc2[nH]cc(C(=O)CNc3nc(C)cs3)c2c1	6.66
Oc1ccc(N2CCN(Cc3cc4c(cc3Br)OCCO4)CC2)cc1	5.3
O=C1CSC(c2ccc3c(c2)OCO3)c2cnn(C3CCCCC3)c2N1 (centres undefined)	-13.7
Cc1ncoc1C(=O)N1CCOC(Cc2ccccc2)C1 (centres undefined)	-6.6
Cn1cc(CN2CCOC(Cc3cccc(F)c3)C2)cn1 (centres undefined)	-6
Fc1ccc(-c2noc(CN3CCC(c4cc[nH]n4)CC3)n2)cc1	-3.56
N#Cc1ccc(CN2CCC(CCc3ccc(O)cc3)CC2)cc1	11
CC(C)(C)NC(=O)CN1CCCN(c2ccc(C#N)cn2)CC1	-6.98
CCCn1nnnc1COc1cc(OC)ccc1C(=O)OC	-7.14
Cc1cc(C)nc(N2CCCC2c2cccnc2)n1 (centres undefined)	-2.91
N#Cc1ncn(CCS(=O)(=O)c2ccc(Br)cc2)n1	4.43
FC(F)(F)c1[nH]nc2c1CN(Cc1ccccc1)CC2	-11.1
CC(=O)c1ccc(C(=O)NCCCOC(C)c2ccccc2)s1 (centres undefined)	1.1
CC(C)CNC(=O)CN(CC(=O)NCC(C)C)S(C)(=O)=O	-8.05
Cc1cc(NCc2ccc(N3CCNC(=O)C3)cc2)nc(C)n1	-1.91
CC1CCN(Cc2cc(=O)[nH]c(=O)[nH]2)CC1	8.26
O=C(NCC1CCCO1)C1CCN(Cc2nc(C3CC3)no2)CC1 (centres undefined)	3.81
CS(=O)(=O)NCC1CCCCN1C(=O)c1csc(-c2ccsc2)n1 (centres undefined)	0.102
COc1cc(C)c(C(C)NC(=O)c2cccnc2N(C)C)cc1OC (centres undefined)	-6.36
Cc1csc(CCNc2ccc(C#N)cn2)n1	-11.4
Cc1ccc(F)cc1NC(=O)NCC(C)N1CCOCC1 (centres undefined)	9.4
Cc1[nH]ncc1CCCNC(=O)Nc1ccc(C#N)cc1	-4.85
CN(C)c1nc2sc(C(=O)N3CCN(C(=O)OC(C)(C)C)CC3)cc2s1	-8.07

SMILES	cytotoxicity at 70.5 h [%]
Cc1nnc(CN2CCOC(c3ccc(Cl)cc3)C2)o1 (centres undefined)	0.631
COCCOc1ncccc1CNC(=O)N1CCOCC1	-7.27
Cc1cc(C2CCCN2CCCc2nc3ccccc3o2)on1 (centres undefined)	-16.1
O=C(c1cccnc1Oc1ccccc1)N1CCCn2ncnc21	4.54
COC(=O)c1cccc(C(=O)N(C)Cc2cccc(O)c2)c1	15.5
CC(C)(CNc1ccc(S(=O)(=O)C(F)F)cc1)N1CCOCC1	18.8
CS(=O)(=O)N1CCN(Cc2ccc(F)cc2Br)CC1	-9.98
O=C1CCCc2cc(-c3csc(CCN4CCOC4=O)n3)ccc2N1	-0.559
Cc1nc2ccccc2c(=O)n1Cc1nnnn1C1CC1	1.18
Cc1ccc(C(=O)N(C)CC(=O)NCC(F)(F)F)cn1	0.05
c1ccc(C2CCN(c3cncc(-n4cccn4)n3)CC2)cc1	-4.22
Cc1ncc(CN(C)C(=O)Nc2cccc(N3CCOC3=O)c2)s1	25
CC(=O)N(C)Cc1ccccc1NC(=O)c1cnn(C)c1C	-0.121
COC(=O)C1CCN(C(=O)CN2CCN(c3cccc(C)c3)CC2)CC1	-8.14
CCC(NC(N)=O)c1ccccc1OCC(=O)N1CCCC1 (centres undefined)	-10.1
CS(=O)(=O)c1ccc(Cl)c(NC(=O)NCCC2=CCCCC2)c1	-8.84
CCN(C(=O)c1cccc2c1OCO2)c1ccccc1	-4.98
Cc1nn(C)c(Cl)c1S(=O)(=O)N(C)C	1.44
Cc1ccnc(NC(=O)c2ccc(Br)o2)c1	-4.47
COc1ccccc1COCC(O)CN(C)Cc1cccc(Cl)c1 (centres undefined)	-23.5
O=c1cc(CNCc2ccc3c(c2)OCO3)nc2ccc(Br)cn12	0.0084
Cc1ccc(C(CC(=O)O)NC(=O)CCc2cccs2)cc1 (centres undefined)	-1.09
Cc1ccc(Cl)cc1N1CCN(CC(=O)NC(C)c2ccco2)CC1 (centres undefined)	1.33

SMILES	cytotoxicity at 70.5 h [%]
COCCCN(Cc1ccccn1)S(=O)(=O)N(C)C	26.3
CC(C)Oc1ccc(C(=O)Nc2nncs2)cn1	5.43
CN(C)C(=O)c1cccc(CNc2ccc(C#N)cn2)c1	5.12
CN(c1cccnn1)C1CCN(C(=O)c2n[nH]c3c2CCC3)CC1	-4.09
Cc1ccc(-c2cccc(-c3ccn(CCN4CCCC4)n3)c2)nn1	-6.29
Cc1[nH]ccc1C(=O)N1CCCC(c2nccn2Cc2cscn2)C1 (centres undefined)	20.2
Cc1ccc2c(c1)c(CNC(=O)C1CC(=O)N(C3CCCC3)C1)nn2C (centres undefined)	16.8
CCCc1cc(C(=O)N(C)Cc2cccc3ncccc23)n(C)n1	-14.7
CCn1c(N)nc2cc(C(=O)NCCc3ccccc3C)cnc21	-5.73
Cc1cc(C[C@@H]2COC[C@@H]2NC(=O)CN2CCCN(C)CC2)on1	-7.54
CN(Cc1cc[nH]n1)C(=O)c1cccc(CCC(C)(C)O)c1	-3.42
CCNC(=O)[C@@H]1C[C@H](NC(=O)c2cncnc2C)CN1CCCSC	-1.96
O=C(c1cccc(S(=O)(=O)NCCCc2ccco2)c1)N1CCOCC1	3.78
Cc1cc(-c2nnc(SCC(=O)O)n2C(C)c2ccccc2)nn1C (centres undefined)	-0.677
COc1ccc2cc(C3CN(C(=O)C4CCOCC4)CCO3)ccc2c1 (centres undefined)	1.57
C=Cc1ccc(C(=O)N2CCCC(Nc3ccc(OC)cc3)C2)cc1 (centres undefined)	-7.62
CC[C@@]1(O)CCN(C(=O)c2ccc(-c3cccc(F)c3)cc2)C[C@H]1O	-7.02
Cc1cc(NCc2cc3n(n2)CCCN(C(=O)N(C)C)C3)ncn1	-12.5
Cc1c(F)cccc1CN1CCn2nc(CNC(=O)N(C)C)cc2C1	20
Cc1c[nH]c(CN(C)c2nc(C3CCCC3)nc3c2cnn3C)n1	-2.19
CN1C(=O)CC(C(=O)O)C12CCN(Cc1ccc(Cl)cc1F)CC2 (centres undefined)	2.06
Cc1cccnc1NCCNC(=O)[C@H]1CNC[C@@H](C(=O)N2CCCC2)C1	0.731
O=C1O[C@@H]2CN(Cc3ccccc3)C[C@@H]2N1CCCN1CCOCC1	-7.7

SMILES	cytotoxicity at 70.5 h [%]
CCS(=O)(=O)N1CCC2(CCCN(Cc3cc(OC)ccc3F)C2)C1 (centres undefined)	-6.66
Cc1ccc(C(=O)N2CCC3(CCC(=O)N(CC(N)=O)C3)CC2)c(O)c1	-9.11
CCCc1nc(N2Cc3cnn(Cc4ccc(F)cc4)c3C2)no1	-12.8
Cc1nc(CC(=O)N2CCC[C@H]2c2nc(C(C)C)no2)cs1	-1.93
COc1ncccc1C(=O)NCC(C)Oc1cccnc1 (centres undefined)	-10.8
CCNC(=O)[C@@H]1C[C@H](NC(=O)Cc2ccsc2)CN1Cc1ccc(C)o1	-8.83
COc1cccc(CN2CCCC(Nc3cccc(F)c3)C2)c1O (centres undefined)	-4.92
CCn1ncnc1C(NC(=O)CC1CCN(C(C)C)CC1)C1CC1 (centres undefined)	13.7
O=C(C1CCC1)N1CCN(C(=O)c2cnccn2)[C@H]2CS(=O)(=O)C[C@H]21	-11.7
O=C(CN1CCNCC1)N1CC[C@@H](c2ccc3ccccc3c2)[C@H](O)C1	-6.87
O=C1CCC2(CCCN(C(=O)c3cscn3)C2)CN1CCc1c[nH]cn1 (centres undefined)	-9.29
Cc1cc(N2CCN(Cc3ccc(C)o3)CC2)cc(C)n1	-9.4
CCN1CC2(CCN(CCOCCO)CC2)CC(c2ccccc2)C1=O (centres undefined)	3.81
CCSCCNC(=O)C(c1cccc(C)c1)N(C)C (centres undefined)	35.5
COC(=O)c1ccc2ccn(CC3CCCO3)c(=O)c2c1 (centres undefined)	-0.903
COc1cccc(OCC2CCCN(C3CCN(C(C)=O)CC3)C2)c1 (centres undefined)	-4.72
Cc1cc(C)n(CC(=O)N(C)Cc2csc(-c3cccs3)n2)c(=O)n1	6.7
c1cnn(Cc2nnc(C3CCN(C4CCOCC4)CC3)n2C2CC2)c1	-10.6
Cn1ccnc1-c1ccccc1C(=O)N1CCc2c(nc(N)[nH]c2=O)C1	-11.8
CC(=O)NCCC1CCCCN1S(=O)(=O)c1cccc(C#N)c1 (centres undefined)	-2.49
Cc1ccc([C@@H]2CN(C(=O)c3cccnn3)C[C@H]2NC(=O)C2CC2)cc1	-8.66
CC(C)(C)c1ncc2c(n1)CN(C(=O)c1ccc(-c3nc[nH]n3)cc1)C2	-1.51
Cc1cccnc1CN(C)CC1(O)CCCN(CC2CCCCC2)C1=O (centres undefined)	18.2

SMILES	cytotoxicity at 70.5 h [%]
OC1(CN2CCCC2)CCCN(Cc2ccc(F)cc2Cl)C1 (centres undefined)	-7.3
CCc1cc(N2CCSCC2)n2nc(C)c(C)c2n1	12.2
CSCC[C@H](N)C(=O)NCc1cc2n(n1)CCCN(C1CCCCC1)C2	-5.05
CCSCC(C)NCc1nncn1C1CCCCC1 (centres undefined)	-2.76
Cc1nc(CN2CCC(C(=O)O)(n3ccc(-c4ccco4)n3)CC2)co1	-7.1
Cc1cnn(C(C)C2CC2)c1NC(=O)c1cnccn1 (centres undefined)	-11.2
COc1cc(CN2CCN(c3cccc(OC)c3)C(=O)C2)cc(OC)c1	-1.7
CCOCCNc1nc(C2CCCC2)nc2c1cnn2C	0.172
COCC(=O)N1CCC(c2nccn2CC2CC2)CC1	-8.88
CN(CCO)Cc1nnc(C2CCN(C3CCCCC3)CC2)n1C	-14.7
CCN(CCn1cccn1)Cc1nc(-c2ccccc2F)oc1C	-7.43
COc1cccc([C@@H]2CN(C(=O)c3ccc(C)cc3O)C[C@H]2C(=O)O)c1	-5.65
CCn1c(Cn2cncn2)nnc1C1CCN(Cc2ccc(C)o2)CC1	-8.85
O=C(c1cc(COc2ccc3c(c2)OCO3)[nH]n1)N1CCOCC1	9.33
CC(C)(C)c1ncc2c(n1)CN(C(=O)c1ccncc1)C2	-9.79
CC(C)NS(=O)(=O)c1cc(C(=O)O)cc(-c2ccc(CN(C)C)cc2)c1	16.9
Cc1[nH]ccc1C(=O)N1CCC(c2nnc(Cn3ccnc3)n2C)CC1	-11.8
Cc1nn(CCn2ccnc2-c2cc3n(n2)CCCNC3)c(C)c1Cl	13.8
CS(=O)(=O)NCCNCc1ccc(Br)s1	3.93
CNCCc1nc2cc(F)ccc2[nH]1	-5.66
COc1cc(CNC(C)c2ccc(F)c(F)c2)cc2c1OCCO2 (centres undefined)	1.07
COc1ccc(CN(C)CC(O)COCc2ccccc2Cl)c(OC)c1 (centres undefined)	16.2

Reference: ChEMBL document CHEMBL3507680, “University of Dundee, Gates Library screen for HepG2 cell viability”
